Data on four molecules can be found in US20220265847A1, “METHODS AND COMPOSITIONS FOR TREATING NON-SMALL CELL LUNG CANCER” (Board of Regents, The University of Texas System, priority 2019, published 2022).

Format in all cases: cell-based
Assay [1] relates to HCC827 (EGFR mutant) cells. As to the kind of experiment: Sensitivity of HCC827 parental cells to EGFR TKIs compared to EGFR TKI resistant (ER) variants. As to conditions: FIG. 1.
The subject of assay [2] is HCC4006 (EGFR mutant) cells. As to the kind of experiment: Sensitivity of HCC4006 parental cells to EGFR TKIs compared to EGFR TKI resistant (ER) variants. As to conditions: FIG. 1. The source says: While EGFR mutant NSCLC patients are initially responsive to EGFR tyrosine kinase inhibitors (TKI), resistant disease inevitably emerges. The inventors derived a panel of NSCLC cell lines with acquired resistance to EGFR TKIs. […] CD70 is typically expressed on T-cells and B-cells, but can also be expressed by some malignant cells. Expression of CD70 by tumor cells is thought to contribute to an immunosuppressive environment by affecting/attracting regulatory T cells and promoting T cell apoptosis and exhaustion.
While EGFR mutant NSCLC patients are initially responsive to EGFR tyrosine kinase inhibitors (TKI), resistant disease inevitably emerges. The inventors derived a panel of NSCLC cell lines with acquired resistance to EGFR TKIs. […] Once tumors were visualized by CT imaging, doxycycline was withdrawn from a subset of animals to mimic EGFR inhibition. […] Tumors were collected an CD70 expression was analyzed by immunohistochemistry. […] Next, the inventors evaluated CD70 expression in EGFR mutant EGFRTKI naïve NSCLC clinical specimens and EGFR mutant NSCLC specimens collected after EGFR TKI resistance.

The test system of assay [3] is HCC827 cells with induced expression of ZEB1. As to the kind of experiment: EGFR TKI sensitivity of HCC827 cells after induced ZEB1 expression (EMT induction). As to conditions: HCC827 (EGFR TKI sensitive) cells with induced ZEB1 expression; FIG. 4B-D / 10B. An excerpt:
Next, the inventors investigated the impact of EMT on CD70 expression in EGFR mutant NSCLC cell lines. The inventors induced EMT through forced expression of ZEB1 in HCC827 parental (EGFR TKI sensitive) cells. […] The inventors next evaluated whether CD70 expression was associated with a mesenchymal phenotype in NSCLC cell lines and human lung adenocarcinomas using the TCGA database.

Assay [4] has as its system HCC4006 osimertinib-resistant (OR) cells. Kind of assay: Soluble CD27 stimulation of CD70, downstream signalling by Western blotting. As to conditions: FIG. 12. The procedure:
FIG. 12. Stimulation of CD70 activates signal transduction pathways in EGFR TKI resistant cells. HCC4006 osimertinib-resistant (OR) cells were treated with soluble CD27, the binding partner of CD70, and the effect on downstream signal transduction pathways was evaluated by Western blotting.
Binding of CD27 to CD70 induces activation of signal transduction pathways downstream of CD70. To investigate the potential impact of CD70 signaling on EGFR TKI resistant cells, the inventors stimulated EGR TKI resistant cells with recombinant soluble CD27.
(Immunoblotting shows a protein as a band on a membrane.)

For a further assay, the system named is H1975 OR5. Kind of assay: CD70 ADC relative cell viability. An excerpt:
(§1) FIG. 14A-C. CD70 antibody-drug conjugates (ADCs) target CD70+ EGFR TKI resistant cell in vitro.
(§2) To determine whether CD70 antibody drug conjugates (ADCs) are a valid approach for targeting EGFR TKI resistant cells, the inventors treated H1975 cells (CD70 low and EGFR TKI sensitive) and H1975 OR5 and H1975 OR16 (both EGFR TKI resistant and CD70 high) with increasing concentrations of the CD70 ADCs cuzatuzumab-MMAE or vorsetuzumab-MMAE. […] The inventors further observed an additive anti-tumor cell effect when osimertinib was combined with anti-CD70 ADCs. (FIG. 15).

A further assay deals with H1975 OR16. As to the kind of experiment: CD70 ADC relative cell viability. As to conditions: H1975 OR16 vs H1975 parental (CD70 low); increasing concentrations; FIG. 14 and 16.
From the text: as §1, §2

With `C#Cc1cccc(Nc2ncnc3cc(OCCOC)c(OCCOC)cc23)c1` [erlotinib], the “sensitivity to EGFR TKI” value in assay [1] and in assay [2] was “sensitive” each time. Moreover, the “sensitivity to EGFR TKI after ZEB1 expression” value in assay [3] is recorded as “resistant”.
As to `C=CC(=O)Nc1cc(Nc2nccc(-c3cn(C)c4ccccc34)n2)c(OC)cc1N(C)CCN(C)C` [osimertinib], the “sensitivity to EGFR TKI” value in assay [1] and in assay [2] was “sensitive” throughout. For the same molecule, the “sensitivity to EGFR TKI after ZEB1 expression” value in assay [3] is “resistant”.

B1: soluble CD27: recombinant soluble CD27, the binding partner of CD70 (protein, UniProt P26842 20-191, looked up)
extracellular domain: ATPAPKSCPERHYWAQGKLCCQMCEPGTFLVKDCDQHRKAAQCDPCIPGVSFSPDHHTRPHCESCRHCNSGLLVRNCTITANAECACRNGWQCRDKECTECDPLPNPSLTARSSQALSPHPQPTHLPYVSEMLEARTAGHMQTLADFRQLPARTLSTHWPPQRSLCSSDFIR
modifications: extracellular domain
With B1, the “effect on downstream signal transduction pathways” value in assay [4] was “phosphorylation of Akt and ERK”.

B2: vorsetuzumab-MMAE (conjugate, chains of the INN, looked up)
VH: QVQLVQSGAEVKKPGASVKVSCKASGYTFTNYGMNWVRQAPGQGLKWMGWINTYTGEPTYADAFKGRVTMTRDTSISTAYMELSRLRSDDTAVYYCARDYGDYGMDYWGQGTTVTVSS
VL: DIVMTQSPDSLAVSLGERATINCRASKSVSTSGYSFMHWYQQKPGQPPKLLIYLASNLESGVPDRFSGSGSGTDFTLTISSLQAEDVAVYYCQHSREVPWTFGQGTKVEIK
modifications: MMAE payload
For the molecule B2, the “anti-tumor cell activity (relative cell viability)” value with H1975 OR5 (H1975 OR5, CD70 high, EGFR TKI resistant, FIG. 14) is “anti-tumor cell activity”. Also, the “sensitivity to CD70 ADC versus H1975 parental cells” value was “more sensitive” in the assay on H1975 OR5 (H1975 OR5 vs H1975 parental (CD70 low), increasing concentrations, FIG. 14 and 16); “more sensitive” in the assay on H1975 OR16.
